Experiment in all cases: NCI-60 cell line screen, 48 h
Assay [1] deals with HL-60.
Assay [2] concerns HCT-116.
Assay [3] has as its system NCI-H522.
Assay [4] concerns Malme-3M.
The subject of assay [5] is HOP-92.
Assay [6] relates to SNB-19.
For assay [7], the system named is HCC 2998.
Assay [8] concerns LOX IMVI.
Assay [9] deals with RXF 393.
Assay [10] deals with SNB-75.
The test system of assay [11] is EKVX.
Assay [12] has as its system A549.
Assay [13] deals with OVCAR-8.
The subject of assay [14] is OVCAR-5.
Assay [15] deals with SK-OV-3.
The test system of assay [16] is 786-0.
The subject of assay [17] is RPMI-8226.
Assay [18] relates to SW-620.

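Following 48 hours of exposure in 96-well plates, responses at five concentrations were used to interpolate endpoints linearly. GI50 marks 50% less growth.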 Active and inactive are the calls of the source. No stated cut-off is given here; in the data, active = GI50 up to about 1.1 µM and inactive = higher. Bounds are passed on as bounds.

For the compound `CC1=C[C@]2(O)C(=O)[C@H](C)C[C@H]3[C@@H](CC[C@@](C)(O)/C=C\2C1=O)C3(C)C`, the GI50 in [1] was > 100 µM (inactive); in assay [2], 17.2 µM (inactive); in assay [3], 13.7 µM (inactive); in assay [4], 22.8 µM (inactive); in assay [5] it was 23 µM (inactive); in assay [6] it was 60.7 µM (inactive). Further, the GI50 is 30.3 µM (inactive) in assay [7]; 17.3 µM (inactive) in assay [8]; 15.4 µM (inactive) in assay [9]; 33.3 µM (inactive) in assay [10]; 70.5 µM (inactive) in [11]; 35.5 µM (inactive) in [12]. Besides, the GI50 is 20.5 µM (inactive) in assay [13]; > 76.7 µM (inactive) in assay [14]; > 56.8 µM (inactive) in [15]; 18.9 µM (inactive) in assay [16]; > 41.9 µM (inactive) in assay [17]; 19.4 µM (inactive) in assay [18].

As for `CCOC(=O)c1ccc(O)cc1` [ETHYLPARABEN], the GI50 in [1], in assay [2], in assay [3], in assay [4], in assay [5] and in assay [6] was > 100 µM (inactive) in each case. Moreover, the GI50 in assay [7], in [8], in assay [9], in assay [10], in assay [11] and in assay [12] was > 100 µM (inactive) in each case. In addition, the GI50 in assay [14], in [15], in assay [16], in [17] and in [18] was > 100 µM (inactive) each time.

Consider `COC(=O)c1nc(-c2ccc3c(n2)C(=O)C(=N)C(OC)=C3O)c(N)c(-c2ccc(OC)c(OC)c2O)c1C`, for which the GI50 is 0.357 µM (active) in [1]; 0.738 µM (active) in assay [2]; 1.06 µM (active) in assay [3]; 0.524 µM (active) in [4]; 2.16 µM (inactive) in assay [5]; 0.628 µM (active) in assay [6]. In addition, the GI50 is 0.128 µM (active) in [7]; 0.29 µM (active) in [8]; 1.58 µM (inactive) in assay [9]; 0.984 µM (active) in assay [10]; 2.57 µM (inactive) in assay [11]; 0.189 µM (active) in assay [12]. The GI50 in assay [13] is 1.08 µM (active); in assay [14] it was 2.14 µM (inactive); in assay [15], 1.18 µM (inactive); in assay [17], 1.21 µM (inactive); in assay [18] it was 1.33 µM (inactive).

Take `CCCSCC(P(=O)(O)O)P(=O)(O)O.NC1CCCCC1`: the GI50 in assay [1], in [2], in [3], in [4], in [5] and in assay [6] was > 100 µM (inactive) each time. For the same compound, the GI50 in [7], in assay [8], in assay [9], in assay [10], in assay [11] and in assay [12] was > 100 µM (inactive) each time. Further, the GI50 in assay [13], in [14], in assay [15], in assay [17] and in assay [18] was > 100 µM (inactive) in each case.

As for `CCC1(O)C[C@H]2CN(CCCc3c([nH]c4ccccc34)[C@@](C(=O)OC)(c3cc4c(cc3OC)N(C)C3[C@](O)(C(=O)OC)[C@H](OC(C)=O)[C@]5(CC)C=CCN6CC[C@]43[C@H]65)C2)C1` (stereo not given in full), the GI50 was 0.621 µM (active) in assay [1]; 0.855 µM (active) in [2]; 0.194 µM (active) in assay [3]; 0.977 µM (active) in [4]; > 10 µM (inactive) in assay [5]; 1.77 µM (inactive) in assay [6]. Also, the GI50 in assay [7] is 1.75 µM (inactive); in assay [8] it was 0.583 µM (active); in [9] it was 0.834 µM (active); in assay [10], 1.35 µM (inactive); in assay [11], 1.63 µM (inactive); in [12], 1.46 µM (inactive). Besides, the GI50 in [13] was 2.96 µM (inactive); in assay [14], 3.34 µM (inactive); in assay [15], 0.526 µM (active); in assay [16], 0.589 µM (active); in [17] it was 0.908 µM (active); in assay [18], 0.497 µM (active).

In the case of `CCC1CN2CCC3(c4ccccc4)CC(C(=O)OC)=CC1C23` (stereo not given), the GI50 in assay [2] is 15.9 µM (inactive); in assay [3], 14.1 µM (inactive); in assay [4], 15.9 µM (inactive); in [5], 11.7 µM (inactive); in assay [6] it was 20.4 µM (inactive); in [7] it was 16.7 µM (inactive). Further, the GI50 in assay [8] was 14.6 µM (inactive); in assay [9], 18.3 µM (inactive); in [10], 17.3 µM (inactive); in assay [11], 13.5 µM (inactive); in [12] it was 17.3 µM (inactive); in assay [13], 17.9 µM (inactive). The GI50 in assay [14] was 5.6 µM (inactive); in [15], 13.3 µM (inactive); in [16], 17.2 µM (inactive); in assay [17], 21.3 µM (inactive); in [18], 16.9 µM (inactive).

For `CSCC[C@@H]1C(=O)N(C)[C@H](C(C)(C)C)N1C(=O)c1ccccc1`, the GI50 in assay [1], in [2], in assay [3], in assay [4], in [5] and in assay [6] was > 100 µM (inactive) in each case. For the same compound, the GI50 in [7], in assay [8], in [9], in assay [10], in assay [11] and in assay [12] was > 100 µM (inactive) in each case. Further, the GI50 in assay [13], in assay [14], in assay [15], in [17] and in assay [18] was > 100 µM (inactive) throughout.

For the compound `CCCNC(=O)Nc1c([N+](=O)[O-])cc(C(F)(F)F)cc1[N+](=O)[O-]`, the GI50 in [1] was 24.5 µM (inactive); in assay [2], 25.3 µM (inactive); in assay [3] it was 31.3 µM (inactive); in [5], > 100 µM (inactive); in assay [6], > 100 µM (inactive); in assay [8], 62.8 µM (inactive). Besides, the GI50 in [9] is 11 µM (inactive); in assay [10] it was 34 µM (inactive); in assay [11] it was > 100 µM (inactive); in assay [12], 58.6 µM (inactive); in assay [13], 74.3 µM (inactive); in assay [14] it was > 100 µM (inactive). The GI50 in assay [15] was > 100 µM (inactive); in [16] it was > 100 µM (inactive); in assay [17], 83.9 µM (inactive); in [18] it was 40.8 µM (inactive).

As for `COc1cccc2c1C(=O)c1c(O)c3c(c(O)c1C2=O)C[C@@](O)(C(C)=O)CC3S(=O)(=O)O` (stereo not given in full), the GI50 in assay [1], in [2], in assay [3], in assay [4], in assay [5] and in assay [6] was > 100 µM (inactive) each time. Moreover, the GI50 in [7] was > 100 µM (inactive); in [8] it was > 100 µM (inactive); in assay [9], > 100 µM (inactive); in assay [10], > 50.5 µM (inactive); in assay [11], > 100 µM (inactive); in assay [12], > 100 µM (inactive). The GI50 in assay [13], in assay [14], in assay [15], in [16], in [17] and in [18] was > 100 µM (inactive) in each case.

As for `NC1=NN(c2ccccc2)C(=O)C1C(=O)C(=O)Nc1ccc(Cl)cc1` (stereo not given), the GI50 in assay [1], in assay [2], in assay [3], in [4], in assay [5] and in [7] was > 100 µM (inactive) throughout. Also, the GI50 in [8], in assay [9], in assay [10], in [11], in assay [12] and in [13] was > 100 µM (inactive) each time. For the same compound, the GI50 in assay [14], in assay [15], in assay [16], in [17] and in assay [18] was > 100 µM (inactive) each time.

Turning to `ClC1CCC2OOC1O2` (stereo not given), the GI50 was 32.2 µM (inactive) in [1]; 61.1 µM (inactive) in assay [2]; > 100 µM (inactive) in assay [3]; > 100 µM (inactive) in [4]; > 100 µM (inactive) in assay [5]; > 100 µM (inactive) in assay [6]. The GI50 was > 100 µM (inactive) in [7]; > 100 µM (inactive) in assay [8]; > 100 µM (inactive) in assay [9]; 82.2 µM (inactive) in [10]; > 100 µM (inactive) in [11]; > 100 µM (inactive) in [12]. In addition, the GI50 in assay [13], in assay [14], in [15], in [16], in assay [17] and in [18] was > 100 µM (inactive) in each case.

For the origin of these results see ChEMBL document CHEMBL1201862, “PubChem BioAssay data set” (2004).
